Results reported in paper PMC9611471 (Pharmaceutics, 2022).

Legend:
SK1 = SK1 (Homo sapiens, UniProt Q9NYA1); assay: SK1 activity assay (Adapta screening system)
[1] = tested on: A549 cell-induced tumor xenograft; assay: A549 tumor xenograft in BALB/c nude mice; assay type: in vivo; settings: vs control group
Experimental: (§1) Five-week-old BALB/c-nu/nu male mice were purchased from Orient Bio Inc. (Seongnam, Gyeonggi-do, Korea). The mice were housed in a climate-controlled room (22 ± 2 °C, 50 ± 10% relative humidity) and specific pathogen-free conditions with a 12 h light/dark cycle and adapted for a week with free access to food and water. Cages, bedding, and drinking water were autoclaved and changed regularly. The cancer cell suspension {3 × 10^7 cells/ 150 μL phosphate-buffered saline (PBS)} was inoculated subcutaneously into the right flank. Measurable tumors were found 7–8 days after cell inoculation, and tumors grew in 90% of the injection site two weeks later. The mice were randomly divided into test groups (12 mice per group) when the tumor volume reached 100 mm^2 about two weeks after the inoculation (experimental day 0). The control group (vehicle-treated group) and Compound 4 (5 mg/kg) were administered i.p. 3 times a week. The formulation of Compound 4 was prepared in a mixture of 10% DMSO + 90% PBS. The tumor growth rate and body weights in each of the two groups were measured every three days using a Vernier caliper and a digital weighing balance, respectively. Tumor volume was calculated as l × b^2 × 0.52, where l is the length and b is the width. Four weeks after treatment, blood samples were drawn from the orbital sinus under anesthesia, the mice were sacrificed by cervical dislocation, and the tumors were dissected for further examination.
The paraffin-embedded tumor specimens were deparaffinized with xylene and a series of different alcohol concentrations, rehydrated, and antigen retrieval was carried out with sodium citrate buffer (0.05 M with PH 6). After blocking with 5% BSA, the slides were incubated overnight at 4 °C with KI67 (Cell Signaling Technology, Danvers, MA, USA), Caspase-3 (Abcam, Cambridge, UK), and S1P antibodies (Echelon Biosciences inc, Salt Lake City, UT). The slides were washed with 1× TBST (TBST with PH 8.4) plus 0.5 percent Triton X-100 (Sigma-Aldrich, St. Louis, MO, USA), then secondary antibodies were added in 1:500 ratios (Invitrogen-Alexa Fluor plus 555, 488, and Alexa FluorTM546), and nuclear staining was performed with Hoechst (Invitrogen, Carlsbad, CA, USA), mounted with a flurosave reagent (EMD Millipore Crop, Billerica, MA, USA). Stain sections were observed and photographed using a confocal microscope (Carl-Zeiss-LSM710NLO and LSM780NLO), and results were analyzed using the Carl-Zeiss ZEN2 software and quantification was done by using the ImageJ software, respectively.

[2] = In vitro metabolic stability, dog liver microsomes; assay type: in vitro ADME; settings: pooled liver microsomes, NADPH, 37 °C, 0 and 30 min
A549 cells [3] = assay: Colony formation assay; assay type: cell-based, human; settings: 5 and 10 μM
Experimental: A549 cells (1 × 10^3 cells/well) were seeded into six-well plates and then each compound was treated at 5 and 10 μM for 12 h. The medium was changed every two days, and the cells were cultured in a fresh medium for 10 days. The obtained colonies were fixed with 25% glutaraldehyde for 20 min and then stained with 0.1% crystal violet for 15 min.

[4] = In vitro metabolic stability, human liver microsomes; settings: pooled liver microsomes 0.5 mg/mL, NADPH, 37 °C, 0 and 30 min
[5] = Serum analysis of tumor xenograft mice; assay type: in vivo; settings: serum biochemical assays; 5 mg/kg i.p., 29 days
Experimental: as §1, with “Four weeks after treatment, blood samples were drawn from the orbital sinus under anesthesia, the mice were sacrificed by cervical dislocation, and the tumors were dissected for further examination.” left out
Blood samples were centrifuged at 3000× g for 20 min, and levels of ALT, AST, ALP, sphingosine, ceramide, and S1P were measured using a kit.

SK2 = molecular target: T1, SK2 (Homo sapiens, UniProt Q9NRA0); assay: SK2 activity assay (Adapta screening system); settings: read-out: SK2 inhibitory efficacy
T1 sequence (Q9NRA0 1-654): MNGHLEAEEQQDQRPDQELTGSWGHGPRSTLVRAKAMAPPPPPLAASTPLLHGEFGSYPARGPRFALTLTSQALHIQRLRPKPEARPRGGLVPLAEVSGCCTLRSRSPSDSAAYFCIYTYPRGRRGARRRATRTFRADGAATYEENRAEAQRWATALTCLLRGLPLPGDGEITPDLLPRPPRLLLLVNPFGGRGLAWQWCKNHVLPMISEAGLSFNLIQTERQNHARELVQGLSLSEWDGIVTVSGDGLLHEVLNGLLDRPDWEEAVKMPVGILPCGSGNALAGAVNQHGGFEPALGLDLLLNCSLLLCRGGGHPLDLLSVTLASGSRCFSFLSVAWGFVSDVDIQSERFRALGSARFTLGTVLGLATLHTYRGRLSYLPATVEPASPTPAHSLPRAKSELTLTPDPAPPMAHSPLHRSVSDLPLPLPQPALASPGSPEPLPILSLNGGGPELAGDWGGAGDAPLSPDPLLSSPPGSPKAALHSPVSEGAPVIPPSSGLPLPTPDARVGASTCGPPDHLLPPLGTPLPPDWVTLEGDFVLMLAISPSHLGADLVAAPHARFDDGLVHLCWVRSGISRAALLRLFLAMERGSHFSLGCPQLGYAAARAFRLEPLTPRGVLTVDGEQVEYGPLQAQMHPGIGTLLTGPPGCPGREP

A549 cells [6] = assay: Annexin V-FITC apoptosis analysis; assay type: cell-based, human; settings: 24 h
Experimental: A549 cells (1 × 10^5 cells) were seeded in into a 12-well plate. […] After harvesting the cells, the binding buffer was added and then incubated with annexin-V-FITC and PI at room temperature for 15 min. The stained cells were analyzed with MACS Quant Analyzer 10 Flow Cytometer (Miltenyi Biotec, Bergisch Gladbach, Germany) within 1 h.

A549 cells [7] = assay: Cytotoxicity after SK1/SK2 siRNA transfection; assay type: cell-based, human; settings: A549 cells transfected with siSK1, siSK2; 24 h
Experimental: Control small interfering RNA (siControl) was obtained from Bioneer (Daejeon, Korea), while SK1 (sc-44114) and SK2 (sc-39225) siRNA (siSK1 and siSK2) were purchased from Santa Cruz Biotechnology (Dallas, TX, USA). Cells were transfected using Lipofectamine RNAiMAX Reagent (Invitrogen, Carlsbad, CA, USA) according to the manufacturer’s instructions. Transfection efficiency was monitored by Western blot. After 24 h of infection, cytotoxicity was measured using infected cells.

[8] = immunohistochemistry, 5 mg/kg i.p.

SK1, sequence (Q9NYA1 whole entry): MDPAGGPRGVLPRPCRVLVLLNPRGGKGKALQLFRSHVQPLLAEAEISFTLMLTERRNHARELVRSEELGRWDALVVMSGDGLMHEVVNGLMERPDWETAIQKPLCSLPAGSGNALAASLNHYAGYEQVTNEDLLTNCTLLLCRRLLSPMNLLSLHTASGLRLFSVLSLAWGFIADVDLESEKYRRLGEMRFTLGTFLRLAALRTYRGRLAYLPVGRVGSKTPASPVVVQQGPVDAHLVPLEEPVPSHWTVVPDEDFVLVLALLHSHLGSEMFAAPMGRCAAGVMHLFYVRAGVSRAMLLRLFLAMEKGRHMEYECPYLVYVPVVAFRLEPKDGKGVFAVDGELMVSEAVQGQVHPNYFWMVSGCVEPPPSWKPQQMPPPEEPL

Cc1cc(CN(Cc2cc(C)cc(CS(=O)(=O)c3ccccc3)c2)c2ccc(CCN3CCC(CO)CC3)cc2)cc(CS(=O)(=O)c2ccccc2)c1 [Compound 4, (1-(4-(Bis(3-methyl-5-((phenylsulfonyl)methyl)benzyl)amino)phenethyl)piperidin-4-yl)methanol]
selectivity for SK1 (SK1; SK1 vs SK2, compared to PF-543): lower selectivity for SK1 compared to PF-543 | inhibition at 10 µM (SK1; read-out: SK1 inhibitory efficacy): 31% | tumor volume ([1]; 5 mg/kg i.p. 3 times a week, 29 days): statistically significant inhibitory effect on the tumor volume | tumor weight ([1]; 5 mg/kg i.p. 3 times a week, day 29): significant decrease in the tumor weight | weight of animals ([1]; 5 mg/kg i.p. 3 times a week): no difference in the weight | KI67 level in tumor sections (proliferation marker) [1, 8]: decrease in the level of KI67 | S1P levels in the tumor section [1, 8]: decreased | caspase-3 level in tumor sections (apoptosis marker) [1, 8]: increased | MS DLM [2]: 26.1 | colony formation (A549 cells [3]): reduce colony formation in a concentration-dependent manner | MS HLM [4]: 30.2 | hepatotoxicity [5]: does not appear to cause hepatotoxicity | inhibition at 10 µM (SK2): 49% | apoptotic effect (annexin-V) (A549 cells [6]; 5 μM): significant effect | apoptotic effect (annexin-V) (A549 cells [6]; 10 μM): significantly higher apoptotic effect compared to PF-543 | dependence of cytotoxic efficacy on SK1/SK2 (siRNA knockdown) (A549 cells [7]): more dependent on SK1, although SK2 is also partially involved
